Laboratory results: the supplement of paper PMC10307832

Key:
Assay in all cases: relative viability (nuclei count vs DMSO), 5 days (fraction); higher = more cells survive
[1] = test system: ABC-1
How it was run: (§1)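 Each reported value is a median over duplicate plates. It expresses relative viability: treated-well nuclei count divided by vehicle-well nuclei count. Lung cancer cell lines in 1536-well plates were dosed by pin tool a day after seeding, alone with one drug or with a fixed anchor-drug dose plus five library-drug doses (not always all listed) in √10 steps, and nuclei were counted after 5 days.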

[2] = test system: CAL-12T
How it was run: as §1

[3] = test system: ChaGo-K-1
How it was run: as §1

[4] = test system: EPLC-272H
How it was run: as §1

[5] = test system: LC-2-ad
How it was run: as §1

[6] = test system: LOU-NH91
How it was run: as §1

[7] = test system: LU99A
How it was run: as §1

[8] = test system: NCI-H1395
How it was run: as §1

[9] = test system: NCI-H1651
How it was run: as §1

[10] = test system: NCI-H1734
How it was run: as §1

[11] = test system: NCI-H1755
How it was run: as §1

[12] = test system: NCI-H1793; conditions: first compound 0.04 µM
How it was run: as §1

Molecule `Clc1ccc(Nc2nnc(Cc3ccncc3)c3ccccc23)cc1` [Vatalanib] + CCNC(=O)c1noc(-c2cc(C(C)C)c(O)cc2O)c1-c1ccc(CN2CCOCC2)cc1 [Luminespib] (partner 0.01 µM) has a relative viability ([1]; first compound 0.04 µM) of 0.822, a relative viability ([1]; first compound 1.265 µM) of 0.63 and a relative viability ([1]; first compound 4 µM) of 0.507. The relative viability ([2]; first compound 0.04 µM) was 0.722, the relative viability ([2]; first compound 0.1265 µM) was 0.406 and the relative viability ([2]; first compound 0.4 µM) was 0.502. For the same molecule, the relative viability ([2]; first compound 1.265 µM) was 0.255, the relative viability ([2]; first compound 4 µM) was 0.513 and the relative viability ([3]; first compound 0.04 µM) was 0.636. It also gave a relative viability ([3]; first compound 0.1265 µM) of 0.608, a relative viability ([3]; first compound 0.4 µM) of 0.671 and a relative viability ([3]; first compound 1.265 µM) of 0.471. The relative viability ([3]; first compound 4 µM) was 0.45, the relative viability ([4]; first compound 0.04 µM) was 0.593 and the relative viability ([4]; first compound 0.1265 µM) was 0.654. For the same molecule, the relative viability ([4]; first compound 0.4 µM) was 0.26, the relative viability ([4]; first compound 1.265 µM) was 0.2 and the relative viability ([4]; first compound 4 µM) was 0.296. For the same molecule, the relative viability ([5]; first compound 0.04 µM) was 1.1, the relative viability ([5]; first compound 0.1265 µM) was 1.04 and the relative viability ([5]; first compound 1.265 µM) was 0.997. It also gave a relative viability ([5]; first compound 4 µM) of 0.948, a relative viability ([6]; first compound 0.04 µM) of 0.371 and a relative viability ([6]; first compound 0.1265 µM) of 0.331. The relative viability ([6]; first compound 1.265 µM) was 0.368, the relative viability ([6]; first compound 4 µM) was 0.315 and the relative viability ([7]; first compound 0.04 µM) was 0.255. For the same molecule, the relative viability ([7]; first compound 0.1265 µM) was 0.238, the relative viability ([7]; first compound 0.4 µM) was 0.264 and the relative viability ([7]; first compound 1.265 µM) was 0.286. It also gave a relative viability ([7]; first compound 4 µM) of 0.246, a relative viability ([8]; first compound 0.04 µM) of 0.668 and a relative viability ([8]; first compound 0.1265 µM) of 0.65. It also gave a relative viability ([8]; first compound 0.4 µM) of 0.834, a relative viability ([8]; first compound 1.265 µM) of 0.66 and a relative viability ([8]; first compound 4 µM) of 0.674. The relative viability ([9]; first compound 0.04 µM) was 0.852, the relative viability ([9]; first compound 0.1265 µM) was 0.891 and the relative viability ([9]; first compound 0.4 µM) was 0.878. The relative viability ([9]; first compound 1.265 µM) was 0.869, the relative viability ([9]; first compound 4 µM) was 0.915 and the relative viability ([10]; first compound 0.04 µM) was 0.224. The relative viability ([10]; first compound 0.1265 µM) was 0.153, the relative viability ([10]; first compound 0.4 µM) was 0.193 and the relative viability ([10]; first compound 1.265 µM) was 0.167. The relative viability ([10]; first compound 4 µM) was 0.192, the relative viability ([11]; first compound 0.04 µM) was 0.419 and the relative viability ([11]; first compound 0.1265 µM) was 0.439. For the same molecule, the relative viability ([11]; first compound 0.4 µM) was 0.556, the relative viability ([11]; first compound 1.265 µM) was 0.316 and the relative viability ([11]; first compound 4 µM) was 0.453. It also gave a relative viability [12] of 0.156.
